Measurements published in patent US20130217592A1, “ARRAYS AND METHODS COMPRISING M. SMITHII GENE PRODUCTS” (THE WASHINGTON UNIVERSITY, priority 2007, published 2013).

Legend:
[1] = system: M. smithii strains DSMZ 861 (PS), 2374 (F1), 2375 (ALI) and 11975 (B181); test: Statin susceptibility of M. smithii strains in the PHAT system, 96-well plates, growth by optical density at 600 nm (all four strains); format: cell-based, Methanobrevibacter smithii; conditions: preliminary results
Procedure: A system for culturing M. smithii in 96-well plate format was designed and constructed in the following manner (See FIG. 15). Three stainless steel paint canisters (Binks, 83S-210, 2 gallon size) were modified for incubation of plates at 37° C. in an oxygen-free gas mix of 20% CO2/80% H2 at a pressure of 30 psi, where all of these growth parameters can be monitored and recorded.
The canisters are heated using Electro-Flex Heat brand Pail Heaters controlled by a custom designed controller consisting of a 16A2120 temperature/process control (Love Controls), an RTD (resistance temperature detector) probe to measure internal tank temperature, and several safety features to prevent overheating or burns.
The system is pressurized with oxygen-free gas that has flowed through a custom-built oxygen scrub. Commercially available gas mixes used for culturing M. smithii contain trace levels of oxygen that would kill the organism: thus, the gas mixture must be passed through an oxygen scrub. This scrub consists of a glass tube filled with copper mesh that is heated to 350° C. with heating tape (HTS/Amptek Duo-Tape), controlled by a benchtop power controller (HTS/Amptek BT-Z). The oxygen scrub is covered with insulating tape and secured behind a heat resistant polyetherimide case. Pressure in each tank is measured and recorded with a digital manometer (LEO record, Omni Instruments).
The system is housed inside an anaerobic chamber (COY laboratories) to allow inspection and manipulation of cultures and plates without exposing M. smithii to oxygen. Each tank can house 30 standard volume 96-well plates, which can be analyzed inside the COY anaerobic chamber with a microplate reader (BioRad) that monitors growth by measuring optical density.
1.5 μl of the stock solutions were added to wells in 96-well plates and transferred to the COY anaerobic chamber where they were kept for at least 24 hours to become anaerobic. 150 microliters of actively growing Methanobrevibacter smithii cultures were then added to each well (excluding medium+drug blanks) to bring the drug concentrations to 1 mM, 100 μM and 10 μM, respectively. The plates were incubated in the newly developed pressurized heated anaerobic tank system in a 4:1 mixture of oxygen-scrubbed H2 and CO2 at a pressure of 30 psi. Cultures grown in 1% ethanol, methanol and DMSO were used as controls. Growth was measured by determining optical density at 600 nm using the BioRad microplate reader (model 680).
Each condition was tested in triplicate with the average measurement plotted.

[2] = system: Bacteroides thetaiotaomicron; test: Effect of statins on growth of B. thetaiotaomicron (FIG. 14); format: cell-based; conditions: statin concentration of 1 mM (FIG. 14)

| SMILES | inhibition of growth of M. smithii strains ([1]; 1 millimolar) | inhibition of growth of M. smithii strains ([1]; 100 micromolar) | effect on the growth of Bacteroides thetaiotaomicron [2] |
| --- | --- | --- | --- |
| CC(C)c1nc(N(C)S(C)(=O)=O)nc(-c2ccc(F)cc2)c1/C=C/[C@@H](O)C[C@@H](O)CC(=O)O [rosuvastatin] | inhibit all strains tested | inhibit all strains | None of these three statins had any affect on the growth |
| CC(C)c1c(C(=O)Nc2ccccc2)c(-c2ccccc2)c(-c2ccc(F)cc2)n1CC[C@@H](O)C[C@@H](O)CC(=O)O [atorvastatin] | inhibit all strains tested | inhibit all strains | None of these three statins had any affect on the growth |
